Values of other authors as cited in patent US12296046B2, “Micro-emulsion containing creatine fatty-ester, method for preparing said micro-emulsion and uses thereof” (COMMISSARIAT À L'ÉNERGIE ATOMIQUE ET AUX ÉNERGIES …, priority 2018, dated 2025).

Test system: CrT−/y mice
Conditions: 30 mg/kg, intracerebroventricular administration

SMILES: CCCCCCCCCCCCOC(=O)CN(C)C(=N)N [DCE, dodecyl creatine ester]
- performance in the object recognition task: significantly improves the performance
